Read-outs that look alike come from different tables or passages of the source.
Assay: in vitro
Assay type: in vitro ADME, human
Method: For several compounds only human liver microsomal stability was tested. […] The microsomal assays were carried out with and without the addition of NADPH at a final concentration of 1 mM. For negative control samples, NADPH reagent was not added. […] Note that compounds undergo only Phase I metabolism in liver microsomes.

[1] = human liver microsomes 0.5 mg/mL, with NADPH, compound 0.5 μM, 37° C., read-out: Human Liver Microsomal Stability t1/2
[2] = human liver microsomes 0.5 mg/mL, with NADPH, compound 0.5 μM, read-out: Human Liver Microsomal Stability CLint (uL/min/mg liver) (converted)
[3] = human liver microsomes, no NADPH, compound 0.5 μM

SMILES: COC(=O)[C@@H](NCC(=O)O[C@]1(C)CC[C@@]2(C)[C@@H](CC[C@@H]3[C@@H]2CC[C@]2(C)[C@@H](C(C)=O)CC[C@@H]32)C1)C(C)C [Compound 108]
- Comments: production of GNX (ganaxolone) in human liver microsomes (human liver microsomes): GNX not produced in human
- half-life [1]: 12.2 min
- microsomal CLint [2]: 114 µL/min/mg
- Human Liver Microsomal Stability no NADPH, % remain 1 h [3]: 98%

SMILES: COC(=O)CNCC(=O)O[C@]1(C)CC[C@@]2(C)[C@@H](CC[C@@H]3[C@@H]2CC[C@]2(C)[C@@H](C(C)=O)CC[C@@H]32)C1 [Compound 110]
- Comments: production of GNX (ganaxolone) in human liver microsomes (human liver microsomes): In human GNX not produced
- half-life [1]: 4.15 min
- microsomal CLint [2]: 344 µL/min/mg
- Human Liver Microsomal Stability no NADPH, % remain 1 h [3]: 1.5%

SMILES: CC(=O)[C@H]1CC[C@H]2[C@@H]3CC[C@H]4C[C@](C)(OC(=O)CNC(=O)CN5CCOCC5)CC[C@]4(C)[C@H]3CC[C@]12C [Compound 112]
- Comments: production of GNX (ganaxolone) in human liver microsomes (human liver microsomes): In human no GNX produced
- half-life [1]: 46.7 min
- microsomal CLint [2]: 29.6 µL/min/mg
- Human Liver Microsomal Stability no NADPH, % remain 1 h [3]: 98.6%

SMILES: CNCC(=O)O[C@]1(C)CC[C@@]2(C)[C@@H](CC[C@@H]3[C@@H]2CC[C@]2(C)[C@@H](C(C)=O)CC[C@@H]32)C1 [Compound 114]
- half-life [1]: 277 min
- microsomal CLint [2]: 5 µL/min/mg
- Human Liver Microsomal Stability no NADPH, % remain 1 h [3]: 99.5%

SMILES: CC(=O)[C@H]1CC[C@H]2[C@@H]3CC[C@H]4C[C@](C)(OC(=O)CN(C)C(=O)CN5CCOCC5)CC[C@]4(C)[C@H]3CC[C@]12C [Compound 115]
- Comments: production of GNX (ganaxolone) in human liver microsomes (human liver microsomes): In human no GNX produced
- half-life [1]: 13.8 min
- microsomal CLint [2]: 100 µL/min/mg
- Human Liver Microsomal Stability no NADPH, % remain 1 h [3]: 99%

SMILES: CC(=O)[C@H]1CC[C@H]2[C@@H]3CC[C@H]4C[C@](C)(OC(=O)CNC(=O)CNC(=O)[C@@H](N)C(C)C)CC[C@]4(C)[C@H]3CC[C@]12C [Compound 122]
- Comments: production of GNX (ganaxolone) in human liver microsomes (human liver microsomes): In human no GNX produced
- half-life [1]: 345 min
- microsomal CLint [2]: 4.02 µL/min/mg
- Human Liver Microsomal Stability no NADPH, % remain 1 h [3]: 99%

SMILES: CC(=O)[C@H]1CC[C@H]2[C@@H]3CC[C@H]4C[C@](C)(OC(=O)CNCC(=O)O)CC[C@]4(C)[C@H]3CC[C@]12C [Compound 124]
- Comments: production of GNX (ganaxolone) in human liver microsomes (human liver microsomes): In human small amount of GNX produced
- half-life [1]: 532 min
- microsomal CLint [2]: 2.61 µL/min/mg
- Human Liver Microsomal Stability no NADPH, % remain 1 h [3]: 99%

SMILES: COC(=O)C(C)(C)NCC(=O)O[C@]1(C)CC[C@@]2(C)[C@@H](CC[C@@H]3[C@@H]2CC[C@]2(C)[C@@H](C(C)=O)CC[C@@H]32)C1 [Compound 125]
- half-life [1]: 3.9 min
- microsomal CLint [2]: 354 µL/min/mg
- Human Liver Microsomal Stability no NADPH, % remain 1 h [3]: 1%

SMILES: CC(=O)[C@H]1CC[C@H]2[C@@H]3CC[C@H]4C[C@](C)(OC(=O)CN5CCC[C@H]5C(=O)OCc5ccccc5)CC[C@]4(C)[C@H]3CC[C@]12C [Compound 128]
- Comments: production of GNX (ganaxolone) in human liver microsomes (human liver microsomes): In human no GNX produced
- half-life [1]: 9 min
- microsomal CLint [2]: 153 µL/min/mg
- Human Liver Microsomal Stability no NADPH, % remain 1 h [3]: 20%

SMILES: CC(=O)[C@H]1CC[C@H]2[C@@H]3CC[C@H]4C[C@](C)(OC(=O)CN[C@@H](C)C(=O)O)CC[C@]4(C)[C@H]3CC[C@]12C [Compound 131]
- Comments: production of GNX (ganaxolone) in human liver microsomes (human liver microsomes): In human no GNX produced
- half-life [1]: 207 min
- microsomal CLint [2]: 6.7 µL/min/mg
- Human Liver Microsomal Stability no NADPH, % remain 1 h [3]: 82%

SMILES: CC(=O)[C@H]1CC[C@H]2[C@@H]3CC[C@H]4C[C@](C)(OC(=O)CNC(C)(C)CO)CC[C@]4(C)[C@H]3CC[C@]12C [Compound 132]
- half-life (human, microsomes): 11.7 min
- microsomal CLint (human, microsomes): 118 µL/min/mg
- Human Liver Microsomal Stability no NADPH, % remain 1 h (human, microsomes): 1%

From US20250034201A1, “PRODRUGS OF GANAXOLONE” (priority 2022, published 2025)
